Legend:
[1] = tested on: Sprague–Dawley rats; assay: Pre-pulse inhibition (PPI) of acoustic startle in rats; assay type: in vivo, rat; conditions: higher potency
Experimental: Male Sprague–Dawley rats from Harlan Industries (Indianapolis, IN, USA; initial weight 250–275 g) were housed in pairs under a 12-h reverse light/dark cycle (lights off at 0700 h). Use of a reversed light/dark cycle allows behavioral testing to be conducted during the awake phase of the light/dark cycle. Food and water were available ad libitum. Animals were acclimatized for approximately 1 wk after arrival prior to behavioral testing and maintained in Association for Assessment and Accreditation of Laboratory Animal Care (AAALAC)-approved facilities that meet all federal and state guidelines. Procedures were approved by the University of California San Diego institutional animal care and use committee. Principles of laboratory animal care were followed.
DPH hydrochloride and 2-MXP hydrochloride were dissolved in water containing 5% Tween-80 and administered subcutaneously, 10-min prior to the start of the startle test session. The injection volume was 1 ml/kg.
Eight startle chambers (SR-LAB system, San Diego Instruments, San Diego, CA, USA) were used to measure startle reactivity in rats. The startle test chambers were sound-attenuated, lighted, and ventilated enclosures containing a clear nonrestrictive cylindrical Plexiglas stabilimeter, 8.2 cm in diameter. A high-frequency loudspeaker mounted 24 cm above the Plexiglas cylinder produced all acoustic stimuli. The peak and average amplitudes of the startle response were detected by a piezoelectric accelerometer. At the onset of the startling stimulus, 100 1-ms readings were recorded, and the average amplitude was used to determine the magnitude of the startle response (measured in arbitrary units).
Acoustic startle test sessions consisted of startle trials (pulse-alone) and prepulse trials (prepulse + pulse). The pulse-alone trial consisted of a 40-ms 120-dB pulse of broadband white noise. Prepulse + pulse trials consisted of a 20-ms acoustic prepulse, an 80-ms delay, and then a 40-ms 120-dB startle pulse (100-ms onset–onset). There was an average of 15 s (range = 6–22 s) between trials. During each inter-trial interval, the movements of the animals were recorded once to measure response when no stimulus was present (data not shown). Each startle session began with a 5 min acclimation period to a 65-dB broadband noise that was present continuously throughout the session. One week after arrival, animals were tested in a brief baseline startle/PPI session to create treatment groups matched for levels of startle and PPI. The startle test session contained 12 pulse-alone trials and 36 prepulse + pulse trials (12 prepulses each of 68-, 71-, and 77-dB [equivalent to 3-, 6-, and 12-dB above background]) presented in a pseudo-randomized order. Six pulse-alone trials were presented at the beginning and the end of the test session but were not used in the calculation of PPI values. Raw data for all PPI experiments are provided as supporting information (S5 File).
The amount of PPI was calculated as a percentage score for each prepulse + pulse trial type: %PPI = 100−{[(startle response for prepulse + pulse trial)/(startle response for pulse-alone trial)] × 100}. Startle magnitude was calculated as the average response to all of the pulse-alone trials. PPI data were analyzed with two-factor analysis of variance (ANOVA) with treatment as the between-subjects factor and trial type (prepulse intensity) as a repeated measure. For experiments in which there was no significant interaction between drug and prepulse intensity, PPI data were collapsed across prepulse intensity and average PPI was used as the main dependent measure. ED50 values were calculated using nonlinear regression. Startle magnitude data were analyzed with one-factor ANOVA. Post-hoc analyses were performed using Tukey’s studentized range method. The alpha level was set at 0.05.

[2] = tested on: PCP site within the NMDAR channel; conditions: [3H]-(+)-MK-801, rat forebrain, cited from earlier work
[3] = tested on: Sprague–Dawley rats; conditions: rat; cited from earlier work
[4] = tested on: PCP site within the NMDAR channel; assay: NMDAR binding, [3H]-MK-801 displacement in rat forebrain homogenate; conditions: lower affinity;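 note: IC50 by nonlinear regression of percent specific binding versus log concentration, Ki from IC50 via Cheng-Prusoff, raw counts in CPM, duplicates repeated at least three times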
Experimental: The reaction was terminated by vacuum filtration using a 24 well cell harvester (Brandel, Gaithersburg, MD) over presoaked GF/B glass fiber filters (Brandel, Gaithersburg, MD). Filters were washed with room temperature assay buffer (3 x 5 mL). […] IC50 values were determined in Graphpad Prism 5.0 using non-linear regression with log-concentration plotted against percent specific binding. […] Ki values were calculated using the equation of Cheng and Prusoff [24]. […] Protein concentration was determined via the Bradford method using Coomassie protein assay reagent (Sigma, USA) [25] with rat albumin (Sigma, USA) as standard. Experiments were performed in duplicate and repeated a minimum of three times.

c1ccc(C2(N3CCCCC3)CCCCC2)cc1 [PCP, Phencyclidine]
potency to alter PPI relative to DPH [1]: 10 fold | IC50 [2]: 91 ± 1.3 nM | Ki ([2]; read-out: Ki ± SEM): 57.9 ± 0.8 nM | ED50 for disruption of PPI [3]: 3.15 µmol/kg | [3H]MK-801 displacement affinity relative to DPH [4]: 3 fold

From article PMC4912077 (PLoS ONE, 2016)
